The results in this text go back to patent publication US8329913B2, “Carbazole derivative, solvate thereof, or pharmaceutically acceptable salt thereof” (Zeria Pharmaceutical Co., Ltd., priority 2004, dated 2012).

The structures appear in SMILES notation.

For one test, the target named is T1, human PPARγ (Homo sapiens, UniProt P37231).
T1 construct: 1.6 kb of fragment of the prepared plasmid pGEMT-hPPARg2 including human PPARγ gene; expressed in transfected cells; host or cells: CV-1 cells, transient transfection with pCI-hPPARg2, pCI-hRXRa and the reporter pGL3-PPRE3-TK
T1 sequence (P37231 1-505): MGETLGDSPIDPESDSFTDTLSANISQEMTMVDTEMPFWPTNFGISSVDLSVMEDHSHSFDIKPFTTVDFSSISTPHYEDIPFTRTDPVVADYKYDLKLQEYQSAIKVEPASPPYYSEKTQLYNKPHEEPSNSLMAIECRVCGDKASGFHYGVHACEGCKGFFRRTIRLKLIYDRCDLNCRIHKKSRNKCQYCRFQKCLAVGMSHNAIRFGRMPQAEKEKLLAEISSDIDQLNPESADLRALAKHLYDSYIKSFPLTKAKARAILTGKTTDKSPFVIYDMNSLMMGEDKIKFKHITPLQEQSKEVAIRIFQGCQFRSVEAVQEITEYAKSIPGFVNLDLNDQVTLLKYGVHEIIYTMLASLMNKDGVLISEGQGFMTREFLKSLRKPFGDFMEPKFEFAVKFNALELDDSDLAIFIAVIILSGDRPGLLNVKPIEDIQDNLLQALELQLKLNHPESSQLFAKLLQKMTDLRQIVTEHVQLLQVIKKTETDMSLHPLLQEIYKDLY
T1 sequence (P19793 1-462 partner): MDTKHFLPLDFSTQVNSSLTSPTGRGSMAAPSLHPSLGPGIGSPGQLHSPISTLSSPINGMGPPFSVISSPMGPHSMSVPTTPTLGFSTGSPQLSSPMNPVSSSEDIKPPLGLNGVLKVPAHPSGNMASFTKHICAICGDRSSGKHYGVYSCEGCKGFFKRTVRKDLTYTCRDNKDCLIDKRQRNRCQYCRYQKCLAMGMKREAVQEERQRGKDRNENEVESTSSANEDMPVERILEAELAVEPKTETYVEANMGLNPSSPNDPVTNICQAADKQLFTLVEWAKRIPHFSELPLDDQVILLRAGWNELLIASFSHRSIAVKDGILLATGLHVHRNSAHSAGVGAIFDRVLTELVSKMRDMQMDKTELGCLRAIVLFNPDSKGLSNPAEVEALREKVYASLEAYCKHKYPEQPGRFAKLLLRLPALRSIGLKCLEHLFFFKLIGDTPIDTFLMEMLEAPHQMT
In words: Human PPARγ antagonist assay (luciferase reporter in transfected CV-1 cells). The test is classed as cell-based. The conditions noted are these: CV-1 cells expressing human PPARγ and RXRα with reporter plasmid; pioglitazone 1 μM as stimulant; 24 hours; read-out: Human PPARγ antagonist activities, Inhibition IC50. The method, then: CV-1 cells (96 well plate), where human PPARγ and RXRα has expressed in the transient transfection of reporter plasmid (see reference 5a) were washed once with PBS (100 μL/well), and then supplemented with 100 μL/well […], as well as pioglitazone (not limited to pioglitazone shown as an example, but may be any PPARγ agonist) at a final concentration of 1 μM as a stimulant were added, and incubated in a 5% CO2 incubator at 37° C. for 24 hours. After removing the medium, the CV-1 cells were washed once with PBS (100 μL/well), and supplemented with 60 μL/well of 1× Passive Lysis Buffer (manufactured by Promega Corporation). The CV-1 cells were incubated at room temperature for 30 minutes, stirred, and then by using Dual-Luciferase Reporter Assay System (manufactured by Promega Corporation), luciferase activities of firefly and renilla were measured using 1420 ARVO Multilabel Counter (manufactured by Wallac Oy). Also, the same experiments as that described above were respectively carried out for the cases where only the above-mentioned stimulants (100 nM, 1 μM, 10 μM) were used, where only the above-mentioned test compounds were used, or where neither was used (nonsupplemented), and luciferase activities of firefly and renilla were measured. Values corrected by dividing the firefly luciferase activities by the renilla luciferase activities were calculated as specific activities and used for evaluations.
Human PPARγ2 antagonist activities of the test compounds were evaluated by using a percentage (inhibition) where the specific activity in case only […] was added is regarded as 0% and the specific activity in case the test compound and the stimulant were not added is regarded as 100%. Moreover, the concentration of the test compound indicating the inhibition rate of 50% was calculated as the IC50 value. Also, human PPARγ2 agonist activities of the test compounds were evaluated by using a percentage (activity) where the specific activity when nonsupplemented is regarded as 0% and the specific activity in case only 10 μM stimulant was added is regarded as 100%, from the specific activity in case only the test compound is used.
CV-1 cells were cultured in DMEM medium (manufactured by Invitrogen Corporation) including 10% fetal bovine serum (manufactured by Dainippon Pharmaceutical Co., Ltd.) in 225T-Flask (manufactured by Corning Costar). The cells were detached by 0.5 g/L trypsin-0.2 g/L EDTA (ethylene diamine tetra-acetic acid) (manufactured by Invitrogen Corporation), and then suspended in the DMEM medium including 10% fetal bovine serum to a cell concentration of 2×10^5 cells/mL. Thereafter, the cells were seeded into 96 well plate at 2×10^4 cells/0.1 mL/well, incubated in the 5% CO2 incubator at 37° C. overnight, and then the plasmids prepared by the above-mentioned reference 1a, reference 3a, and reference 4a were transfected into cells by using a lipofectamine reagent (manufactured by Invitrogen Corporation) according to the attached manual.
Namely, after CV-1 cells were cultured overnight, the cells were washed with PBS (100 μL/well). Thereafter the cells were incubated for 5 hours at 37° C./5% CO2 in the MEM medium (manufactured by Invitrogen Corporation) including 430 ng/mL of human PPARγ expression plasmid (pCI-hPPARg2) prepared by the reference 1a, 430 ng/mL of human RXRα expression plasmid (pCI-hRXRa) prepared by the reference 3a, and 140 ng/mL of the reporter plasmid (pGL3-PPRE3-TK) prepared by the reference 4a, 10 ng/mL of phRL-TK vector (manufactured by Promega Corporation) and 2 μL/mL of lipofectamine.
For orientation: In a reporter assay the amount or activity of a reporter protein is the signal.
Broadly, the IC50 is the point on the concentration scale where inhibition reaches its midpoint. Turning to `COc1cc(Cn2c3ccccc3c3c(OC(C(=O)O)c4ccccc4)cccc32)ccc1OCc1nc(-c2ccco2)oc1C` (racemic) [Example 6, (±)-2-{9-[4-((2-(furan-2-yl)-5-methyl-oxazole-4-yl)methoxy)-3-methoxy-benzyl]-9H-carbazole-4-yloxy}-2-phenylacetic acid], the IC50 came out at 905 nM. Same read-out and setting: in the case of `COc1cc(Cn2c3ccccc3c3c(OC(C(=O)O)C(C)C)cccc32)ccc1OCc1nc(-c2ccccc2)oc1C` (racemic) [Example 10, (±)-2-{9-[3-methoxy-4-((5-methyl-2-phenyl-oxazole-4-yl)methoxy)-benzyl]-9H-carbazole-4-yloxy}-3-methyl-butyric acid] it was 400 nM; in that of `CCCC(Oc1cccc2c1c1ccccc1n2Cc1ccc(OCc2nc(-c3ccccc3)oc2C)c(OC)c1)C(=O)O` (racemic) [Example 11, (±)-2-{9-[3-methoxy-4-((5-methyl-2-phenyl-oxazole-4-yl)methoxy)-benzyl]-9H-carbazole-4-yloxy}valeric acid], 281 nM. Still for that read-out and setting: in the case of `CCCCC(Oc1cccc2c1c1ccccc1n2Cc1ccc(OCc2nc(-c3ccccc3)oc2C)c(OC)c1)C(=O)O` (racemic) [Example 17, (±)-2-{9-[3-methoxy-4-((5-methyl-2-phenyl-oxazole-4-yl)methoxy)-benzyl]-9H-carbazole-4-yloxy}caproic acid] it was 320 nM; in that of `CCCCCC(Oc1cccc2c1c1ccccc1n2Cc1ccc(OCc2nc(-c3ccccc3)oc2C)c(OC)c1)C(=O)O` (racemic) [Example 18, (±)-2-{9-[3-methoxy-4-((5-methyl-2-phenyl-oxazole-4-yl)methoxy)-benzyl]-9H-carbazole-4-yloxy}heptane acid], 829 nM.

Regarding `CCCCCCC(Oc1cccc2c1c1ccccc1n2Cc1ccc(OCc2nc(-c3ccccc3)oc2C)c(OC)c1)C(=O)O` (racemic) [Example 19, (±)-2-{9-[3-methoxy-4-((5-methyl-2-phenyl-oxazole-4-yl)methoxy)-benzyl]-9H-carbazole-4-yloxy}caprylic acid], the IC50 worked out at 882 nM. For the molecule `COc1cc(Cn2c3ccccc3c3c(OC(C(=O)O)c4ccccc4)cccc32)ccc1OCc1nc(-c2ccccc2)oc1C` (racemic) [Example 26, (±)-2-{9-[3-methoxy-4-((5-methyl-2-phenyl-oxazole-4-yl)methoxy)-benzyl]-9H-carbazole-4-yloxy}-2-phenylacetic acid], the 50% inhibitory concentration (IC50) came out at 546 nM.

As to `COc1cc(Cn2c3ccccc3c3c(OC(C(=O)O)c4ccccc4)cccc32)ccc1OCc1nc(-c2ccccc2)oc1C` (racemic) [Example 36], the IC50 was determined as 596 nM.

Consider `COc1cc(Cn2c3ccccc3c3c(OC(C(=O)O)c4ccccc4)cccc32)ccc1OCc1nc(-c2ccccc2)oc1C` (single isomer, unassigned) [Example 50, sodium (+)-2-{9-[3-methoxy-4-((5-methyl-2-phenyl-oxazole-4-yl)methoxy)-benzyl]-9H-carbazole-4-yloxy}-2-phenylacetate], for which the IC50 worked out at 471 nM. Still for that read-out and setting: with `COc1cc(Cn2c3ccccc3c3c(OC(C(=O)O)c4ccccc4)cccc32)ccc1OCc1nc(-c2ccccc2)oc1C` (single isomer, unassigned) [Example 51, sodium (−)-2-{9-[3-methoxy-4-((5-methyl-2-phenyl-oxazole-4-yl)methoxy)-benzyl]-9H-carbazole-4-yloxy}-2-phenylacetate] the figure was 2190 nM. Still for that read-out and setting: with `COc1cc(Cn2c3ccccc3c3c(OCCC(C)C(=O)O)cccc32)ccc1OCc1nc(-c2ccccc2)oc1C` (single isomer, unassigned) [Example 52, sodium (−)-4-{9-[3-methoxy-4-((5-methyl-2-phenyl-oxazole-4-yl)methoxy)-benzyl]-9H-carbazole-4-yloxy}-2-methyl-butyrate] the figure was 173 nM; with `COc1cc(Cn2c3ccccc3c3c(OCCC(C)C(=O)O)cccc32)ccc1OCc1nc(-c2ccccc2)oc1C` (single isomer, unassigned) [Example 53, sodium (+)-4-{9-[3-methoxy-4-((5-methyl-2-phenyl-oxazole-4-yl)methoxy)-benzyl]-9H-carbazole-4-yloxy}-2-methyl-butyrate], 382 nM. Same read-out and setting: with `COc1cc(Cn2c3ccccc3c3c(OCC(=O)O)cccc32)ccc1OCc1nc(-c2ccccc2)oc1C` [Example 1, 2-{9-[3-methoxy-4-((5-methyl-2-phenyl-oxazole-4-yl)methoxy)-benzyl]-9H-carbazole-4-yloxy}acetic acid] the figure was 3150 nM; with `COc1cc(Cn2c3ccccc3c3c(OCCCC(=O)O)cccc32)ccc1OCc1nc(-c2ccccc2)oc1C` [Example 12, 4-{9-[3-methoxy-4-((5-methyl-2-phenyl-oxazole-4-yl)methoxy)-benzyl]-9H-carbazole-4-yloxy}butyric acid], 725 nM; with `COc1cc(Cn2c3ccccc3c3c(OCCCCC(=O)O)cccc32)ccc1OCc1nc(-c2ccccc2)oc1C` [Example 20, 5-{9-[3-methoxy-4-((5-methyl-2-phenyl-oxazole-4-yl)methoxy)-benzyl]-9H-carbazole-4-yloxy}valeric acid], 1600 nM. As for `COc1cc(Cn2c3ccccc3c3c(OCCCCCC(=O)O)cccc32)ccc1OCc1nc(-c2ccccc2)oc1C` [Example 21, 6-{9-[3-methoxy-4-((5-methyl-2-phenyl-oxazole-4-yl)methoxy)-benzyl]-9H-carbazole-4-yloxy}caproic acid], the IC50 worked out at 5060 nM.

With `COc1cc(Cn2c3ccccc3c3c(OCC(=O)O)cccc32)ccc1OCc1nc(-c2ccccc2)oc1C` [Example 29], the half-inhibitory concentration (IC50) was determined as 2460 nM. Still for that read-out and setting: with `COc1cc(Cn2c3ccccc3c3c(OCCCC(=O)O)cccc32)ccc1OCc1nc(-c2ccccc2)oc1C` [Example 33] the figure was 1380 nM. Still for that read-out and setting: with `COc1cc(Cn2c3ccccc3c3c(OCC(C)(C)C(=O)O)cccc32)ccc1OCc1nc(-c2ccncc2)oc1C` [Example 35] the figure was 509 nM.

Still in this test, the particulars now being: at 10 μM test compound; CV-1 cells expressing human PPARγ and RXRα; pioglitazone as stimulant; read-out: Human PPARγ antagonist activities, Inhibition % at 10 μM.
A word on the inhibition: it is how much of the control response was suppressed. On to `COc1cc(Cn2c3ccccc3c3c(OCC(=O)O)cccc32)ccc1OCc1nc(-c2ccco2)oc1C` [Example 2, 2-{9-[4-((2-(furan-2-yl)-5-methyl-oxazole-4-yl)methoxy)-3-methoxy-benzyl]-9H-carbazole-4-yloxy}acetic acid], for which the inhibition at 10 µM was determined as 47.4%.
